The source of these data is patent US12692254B2, “Benzimidazole inhibitors of PAD enzymes” (BRISTOL-MYERS SQUIBB COMPANY, priority 2018, dated 2026).

For this test, the target named is human PAD4 (hPAD4) (Homo sapiens, UniProt Q9UM07). As to the kind of experiment: RFMS human PAD4 functional assay (rapid-fire mass spectrum). The note with it: 5 nM hPAD4 enzyme, 250 μM BAEE, 50 μM Calcium; 30 min preincubation, 90 min reaction at 37° C. The test is classed as biochemical. In outline:
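PAD4 (10 nM) preincubated 30 min with compound (top final 50 μM), then BAEE substrate added in pH 7.5 HEPES buffer with DTT, 50 μM calcium, TPEN; 90 min at 37° C. After TCA quench, citrulline derivatized with phenyl glyoxal (4 mM final, 30 min, 37° C) and quantified by RapidFire MS against internal standard.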

Each structure is given as a SMILES string.

Sequence of human PAD4 (hPAD4) (Q9UM07 whole entry): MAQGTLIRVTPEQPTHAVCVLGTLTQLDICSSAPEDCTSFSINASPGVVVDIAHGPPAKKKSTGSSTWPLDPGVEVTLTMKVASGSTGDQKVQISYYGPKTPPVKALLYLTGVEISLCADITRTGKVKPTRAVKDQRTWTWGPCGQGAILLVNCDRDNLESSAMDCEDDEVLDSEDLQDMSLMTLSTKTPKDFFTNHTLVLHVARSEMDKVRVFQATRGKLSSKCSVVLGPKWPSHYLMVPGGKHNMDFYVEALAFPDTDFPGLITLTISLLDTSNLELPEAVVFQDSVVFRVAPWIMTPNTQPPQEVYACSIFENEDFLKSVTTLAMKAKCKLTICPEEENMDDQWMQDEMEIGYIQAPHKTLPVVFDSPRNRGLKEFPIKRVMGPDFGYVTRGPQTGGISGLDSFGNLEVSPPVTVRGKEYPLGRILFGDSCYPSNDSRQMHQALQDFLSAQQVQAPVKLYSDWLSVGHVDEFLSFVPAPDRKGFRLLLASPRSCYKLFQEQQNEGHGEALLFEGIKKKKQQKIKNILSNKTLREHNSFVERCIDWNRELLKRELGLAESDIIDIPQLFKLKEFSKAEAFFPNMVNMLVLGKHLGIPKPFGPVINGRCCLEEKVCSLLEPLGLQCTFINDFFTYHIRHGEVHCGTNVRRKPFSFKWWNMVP

With `COc1cc(C(=O)N2C[C@H]3CC[C@@H]2[C@@H]3N)cc2nc(-c3cc4cccnc4n3CC3CC3)n(CC3CN(C(=O)c4ccnc(F)c4)C3)c12` [Example 122, (1R,4R,7R)-2-{2-[1-(cyclopropylmethyl)-1H-pyrrolo[2,3-b]pyridin-2-yl]-1-{[1-(2-fluoropyridine-4-carbonyl)azetidin-3-yl]methyl}-7-methoxy-1H-1,3-benzodiazole-5-carbonyl}-2-azabicyclo[2.2.1]heptan-7-amine], the IC50 came out at 98 nM. In the case of `COc1cc(C(=O)N2C[C@H]3CC[C@@H]2[C@@H]3N)cc2nc(-c3cc4ccccc4n3CC3CC3)n(CC3CN(C(=O)c4ccc(C#N)cc4F)C3)c12` [Example 163, 4-[3-({5-[(1R,4R,7R)-7-amino-2-azabicyclo[2.2.1]heptane-2-carbonyl]-2-[1-(cyclopropylmethyl)-1H-indol-2-yl]-7-methoxy-1H-1,3-benzodiazol-1-yl}methyl)azetidine-1-carbonyl]-3-fluorobenzonitrile], the IC50 amounted to 26 nM. The same measure for `COc1cc(C(=O)N2C[C@H]3CC[C@@H]2[C@@H]3N)cc2nc(-c3cc4cccnc4n3CC3CC3)n(CC3CN(C(=O)c4ccnc(N)n4)C3)c12` [Example 125, (1R,4R,7R)-2-(1-{[1-(2-aminopyrimidine-4-carbonyl)azetidin-3-yl]methyl}-2-[1-(cyclopropylmethyl)-1H-pyrrolo[2,3-b]pyridin-2-yl]-7-methoxy-1H-1,3-benzodiazole-5-carbonyl)-2-azabicyclo[2.2.1]heptan-7-amine]: 102 nM; for `COc1cc(C(=O)N2C[C@H](N)C[C@@H](F)C2)cc2nc(-c3cc4cccnc4n3CC3CC3)n(Cc3cnn(-c4ncccn4)c3)c12` [Example 401, (3R,5R)-1-{2-[1-(cyclopropylmethyl)-1H-pyrrolo[2,3-b]pyridin-2-yl]-7-methoxy-1-{[1-(pyrimidin-2-yl)-1H-pyrazol-4-yl]methyl}-1H-1,3-benzodiazole-5-carbonyl}-5-fluoropiperidin-3-amine]: 59 nM.

Regarding `COC(=O)N1CC(Cn2c(-c3cc4cccnc4n3CC3CC3)nc3cc(C(=O)N4C[C@H]5CC[C@@H]4[C@@H]5N)cc(OC)c32)C1` [Example 132, methyl 3-({5-[(1R,4R,7R)-7-amino-2-azabicyclo[2.2.1]heptane-2-carbonyl]-2-[1-(cyclopropylmethyl)-1H-pyrrolo[2,3-b]pyridin-2-yl]-7-methoxy-1H-1,3-benzodiazol-1-yl}methyl)azetidine-1-carboxylate], the concentration for half-maximal inhibition (IC50) is 148 nM. As for `COc1cc(C(=O)N2CC3CCC2[C@@H]3N)cc2nc(-c3cc4cccnc4n3CC3CC3)n(CC3CN(c4cc(Cl)cnc4C#N)C3)c12` (stereo partly drawn) [Example 38, 3-[3-({5-[(1R,4R,7R)-7-amino-2-azabicyclo[2.2.1]heptane-2-carbonyl]-2-[1-(cyclopropylmethyl)-1H-pyrrolo[2,3-b]pyridin-2-yl]-7-methoxy-1H-1,3-benzodiazol-l-yl}methyl)azetidin-1-yl]-5-chloropyridine-2-carbonitrile], the figure is 94 nM; as for `COc1cc(C(=O)N2C[C@H]3CC[C@@H]2[C@@H]3N)cc2nc(-c3cc4cccnc4n3CC3CC3)n(C3CN(c4ccnc(C)n4)C3)c12` [Example 77, (1R,4R,7R)-2-{2-[1-(cyclopropylmethyl)-1H-pyrrolo[2,3-b]pyridin-2-yl]-7-methoxy-1-[1-(2-methylpyrimidin-4-yl)azetidin-3-yl]-1H-1,3-benzodiazole-5-carbonyl}-2-azabicyclo[2.2.1]heptan-7-amine], 307 nM; as for `COc1cc(C(=O)N2C[C@H](N)C[C@@H](F)C2)cc2nc(-c3cc4ccccc4n3CC3CC3)n(CC3CCC(=O)N3)c12` (stereo partly drawn) [Example 283, 5-({5-[(3R,5R)-3-amino-5-fluoropiperidine-1-carbonyl]-2-[1-(cyclopropylmethyl)-1H-indol-2-yl]-7-methoxy-1H-1,3-benzodiazol-1-yl}methyl)pyrrolidin-2-one], 895 nM.

In the case of `COc1cc(C(=O)N2CC3CCC2[C@@H]3N)cc2nc(-c3cc4cccnc4n3CC3CC3)n(C3CCN(c4ccnc(C#N)n4)CC3)c12` (stereo partly drawn) [Example 237, 4-(4-{5-[(1R,4R,7R)-7-amino-2-azabicyclo[2.2.1]heptane-2-carbonyl]-2-[1-(cyclopropylmethyl)-1H-pyrrolo[2,3-b]pyridin-2-yl]-7-methoxy-1H-1,3-benzodiazol-1-yl}piperidin-l-yl)pyrimidine-2-carbonitrile], the IC50 amounted to 540 nM.

For the compound `COc1cc(C(=O)N2CC3CCC2[C@@H]3N)cc2nc(-c3cc4ccccc4n3CC3CC3)n(CC3CN(C(=O)c4ccn(C)c(=O)c4)C3)c12` (stereo partly drawn) [Example 433, 4-[3-({5-[(7R)-7-amino-2-azabicyclo[2.2.1]heptane-2-carbonyl]-2-[1-(cyclopropylmethyl)-1H-indol-2-yl]-7-methoxy-1H-1,3-benzodiazol-1-yl}methyl)azetidine-1-carbonyl]-1-methyl-1,2-dihydropyridin-2-one], the IC50 is 31 nM. As for `COc1cc(C(=O)N2CC3CCC2[C@@H]3N)cc2nc(-c3cc4ccccc4n3C)n(Cc3cnn(C)c3)c12` (stereo partly drawn) [Example 513, (7R)-2-[7-methoxy-2-(1-methyl-1H-indol-2-yl)-1-[(1-methyl-1H-pyrazol-4-yl)methyl]-1H-1,3-benzodiazole-5-carbonyl]-2-azabicyclo[2.2.1]heptan-7-amine], the figure is 391 nM; as for `COc1cc(C(=O)N2CC3CCC2[C@@H]3N)cc2nc(-c3cc4cccnc4n3CC3CC3)n(CC3CN(C(=O)Nc4ccccc4)C3)c12` (stereo partly drawn) [Example 455, 3-({5-[(7R)-7-amino-2-azabicyclo[2.2.1]heptane-2-carbonyl]-2-[1-(cyclopropylmethyl)-1H-pyrrolo[2,3-b]pyridin-2-yl]-7-methoxy-1H-1,3-benzodiazol-1-yl}methyl)-N-phenylazetidine-1-carboxamide], 59 nM; as for `COc1cc(C(=O)N2C[C@H]3CC[C@@H]2[C@@H]3N)cc2nc(-c3cc4ccccc4n3CC3CC3)n(CC3CN(C(=O)c4cccc(C(=O)O)c4)C3)c12` [Example 137, 3-[3-({5-[(1R,4R,7R)-7-amino-2-azabicyclo[2.2.1]heptane-2-carbonyl]-2-[1-(cyclopropylmethyl)-1H-indol-2-yl]-7-methoxy-1H-1,3-benzodiazol-1-yl}methyl)azetidine-1-carbonyl]benzoic acid], 11 nM. The same measure for `COc1cc(C(=O)N2CC3CCC2[C@@H]3N)cc2nc(-c3cc4ccccc4n3CC3CC3)n(CC3CN(C(=O)c4ccccc4C(=O)O)C3)c12` (stereo partly drawn) [Example 179, 2-[3-({5-[(1R,4R,7R)-7-amino-2-azabicyclo[2.2.1]heptane-2-carobnyl]-2-[1-(cyclopropylmethyl)-1H-indol-2-yl]-7-methoxy-1H-1,3-benzodiazol-1-yl}methyl)azetidine-1-carbonyl]benzoic acid]: 93 nM; for `COc1cc(C(=O)N2C[C@H]3CC[C@@H]2[C@@H]3N)cc2nc(-c3cc4ccccc4n3CC3CC3)n(CCN3CCNC3=O)c12` [Example 279, 1-(2-{5-[(1R,4R,7R)-7-amino-2-azabicyclo[2.2.1]heptane-2-carbonyl]-2-[1-(cyclopropylmethyl)-1H-indol-2-yl]-7-methoxy-benzodiazol-1-yl}ethyl)imidazolidin-2-one]: 491 nM.

One may read the IC50 as the concentration at which inhibition is half-maximal.
